Where a SMILES comes first, the peptide text is derived from it. [ ]: non-standard residue; d: D form. Sar = CNCC(=O)O
What was measured:
[1] = test system: B16-F10 cells; assay: Melanogenesis inhibition test; type: cell-based, Mus musculus; details: 3 days, OD 405 nm, tyrosine + α-MSH stimulated
Description: Melanogenesis Inhibition Test In the melanogenesis inhibition test, Kojic acid is used as the positive control. Compounds (II), (III), and (IV) and ascorbic acid derivative are evaluated regarding their whitening effect under a concentration of no cytotoxicity to test the melanogenesis inhibiting ability. B16-F10 B16-F10 cells are placed in a 96-well plate and each well comprises 5000 cells (5000 cells/well). The cells are incubated at 37° C. in 5% CO2 and 10% FBS DMEM (Fetal Bovine Serum Dulbecco's modified Eagle's medium) overnight to allow the cells to attach to the wells. Melanin production rate (%) is defined by the following equation: [formula] where ODT represents the optical density of the test sample at the wavelength 405 nm by the spectrophotometer; ODB represents the optical density of the blank control at 405 nm; ODN represents the optical density of the negative control at 405 nm. The negative control comprises 0.1 mg/ml of tyrosine and 1 μM of α-MSH (α-melanocyte stimulating hormone). The blank control comprises 0.1 mg/ml of tyrosine but no α-MSH. The test sample is prepared by stocking 5 wt % of compound (II), (III), or (IV) in phenol red free DMEM and 5 wt % FBS no phenol red DMEM with 0.1 mg/ml tyrosine and 1 μM α-MSH is prepared and filtered by a 0.22 μm filter. 0.1 mg/ml tyrosine may cause the medium over saturated and thus centrifugal filtration is required. The testing sample was prepared in the medium mentioned above. Until cells were at full confluence, they were treated with test samples and reference samples (prepared above) 100 μL each well for 3 days. After 3 days incubation, 100 μL 1N NaOH is added in each well. The solution is placed on a shaking table at least 10 minutes. The optical density of the test sample at 405 nm is measured. The positive control is Kojic acid (500 ppm concentration). Based on student's t-test, the P value is less than 0.05.

[2] = test system: 3T3 (Swiss albino mouse fibroblast) cells; assay: Cytotoxicity test by MTT assay (3T3); type: cell-based; details: 3T3 and B16-F10 cells, compared with ascorbic acid derivative known to have no apparent cytotoxicity
Description: The cytotoxicity test is evaluated by MTT assay.

[3] = Color stability test (accelerated, 45° C. oven); type: physicochemical
Description: The test samples (compounds (II), (III), and (IV)) and the reference sample are separately dissolved in water and a buffer solution with pH=6 to prepare 0.5 wt % solutions. The buffer solution with pH=6 is a mixture solution of 3.8 ml 0.1M citric acid and 16.2 ml citrate. […] of a test sample are dissolved in the mixture solution to prepare a 0.5 wt % solution. Then, the solutions are placed in a 45° C. oven to perform an accelerated color stability test. After 14 and 28 days, the spectrophotometer is used to measure the light transmittance of these solutions at 440 nm.

[4] = 0.5 wt % aqueous solution, 14 days
[5] = 0.5 wt % aqueous solution, 28 days
[6] = 0.5 wt % in citric acid buffer solution pH = 6, 14 days
[7] = 0.5 wt % in citric acid buffer solution pH = 6, 28 days

Structure (SMILES) | Transmittance % (440 nm) [3, 4] [%] | Transmittance % (440 nm) [3, 5] [%] | Transmittance % (440 nm) [3, 6] [%] | Transmittance % (440 nm) [3, 7] [%] | melanin production rate % ± standard deviation ([1]; sample concentration 0.2%) [%] | melanin production rate % ± standard deviation ([1]; sample concentration 0.4%) [%] | safety of using (cytotoxicity) [2]
CC(=O)NCC(=O)N(C)CC(=O)O [Compound (IV), [(2-Acetylamino-acetyl)-methyl-amino]-acetic acid] (Ac-Gly-[Sar]-OH) | 99.7 | 100 | 100 | 100 | 60.8 ± 22.3 | 15.0 ± 5.6 | the same as that of ascorbic acid derivative
O=c1cc(CO)occ1O [Kojic acid] | 94.9 | 81 | 34.8 | 4.0 |  |  | 
OC[C@H]1O[C@@H](Oc2ccc(O)cc2)[C@H](O)[C@@H](O)[C@@H]1O [arbutin] | 96.7 | 95.4 |  |  |  |  | 
O=C1O[C@H]([C@@H](O)CO)C(O)=C1O [Ascorbic acid] | 37.8 | 20.8 | 0.7 | 2.1 |  |  | 
CC(=O)NCC(=O)NCCC(=O)O [Compound (II), 3(2-acetylamino-acetylamino)-propionic acid] | 98.9 | 99.8 | 99.4 | 99.3 | 64.7 ± 12.8 | 11.0 ± 2.9 | the same as that of ascorbic acid derivative
CC(=O)NCC(=O)NCCCC(=O)O [Compound (III), 4-(2-Acetylamino-acetylamino)-butyric acid] | 99.6 | 99.5 | 100 | 99.9 | 70.4 ± 10.0 | 14.2 ± 3.0 | the same as that of ascorbic acid derivative
NCCC(=O)N[C@@H](Cc1cnc[nH]1)C(=O)O [carnosine] |  |  |  |  | 129 ± 1.7 | 141 ± 10.5 | 

Second part, led by results:

Transmittance % (440 nm) [3, 4] [%] | Transmittance % (440 nm) [3, 5] [%] | Transmittance % (440 nm) [3, 6] [%] | Transmittance % (440 nm) [3, 7] [%] | Structure (SMILES) | melanin production rate % ± standard deviation ([1]; sample concentration 0.2%) [%] | melanin production rate % ± standard deviation ([1]; sample concentration 0.4%) [%] | safety of using (cytotoxicity) [2]
 |  | 98.6 | 97.5 | CCOC1=C(O)C(=O)O[C@@H]1[C@@H](O)CO [ethyl ascorbic acid] | 86.4 ± 2.6 | 78.9 ± 6.3 | 
97.8 | 96.9 |  |  | O=C1O[C@H]([C@@H](O)CO)C(O)=C1O[C@H]1O[C@H](CO)[C@@H](O)[C@H](O)[C@H]1O [ascorbic acid 2-glucoside (AA2G), ascorbic acid 2-glucoside] | 86.8 ± 3.4 | 76.2 ± 10.5 | 
 |  | 85.6 | 80.9 | O=C1O[C@H]([C@@H](O)CO)C(O)=C1OP(=O)([O-])[O-].[Mg+2] [ascorbic acid 2-phosphate magnesium] | 105.3 ± 3.4 | 88.4 ± 11.4 | 
